These results are taken from PubChem BioAssay (NCI).

Some test systems named below: CCRF-CEM leukemia; SNB-19 CNS; M14 melanoma; HCT-116 colon; OVCAR-3 ovarian; SK-MEL-28 melanoma; HCC-2998 colon; HL-60(TB) leukemia; NCI-H522 lung.
What all share (assay): NCI tumour cell line growth inhibition, 48 h

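Compound exposure: 48 hours, 5 concentrations, 96-well plates. The concentration for 50% growth inhibition is given as GI50. The concentration for full growth arrest is given as TGI.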

Take `CSc1snc2sc3c(Cl)nnnc3c12`: the TGI with CCRF-CEM leukemia was determined as 11 µM; in the assay on SNB-19 CNS, 30.1 µM; with M14 melanoma it was 26.3 µM; with HCT-116 colon it was 30.9 µM; in the assay with OVCAR-3 ovarian it was 5.72 µM; in the assay with SK-MEL-28 melanoma, 23.2 µM. The same molecule displayed a TGI in the assay on HCC-2998 colon of 21.2 µM.

With `Fc1cccc(-n2ccc(-c3ccccc3)nc2=S)c1`, the GI50 in the assay on CCRF-CEM leukemia is greater than 85.3 µM; with SNB-19 CNS, 12.9 µM; with M14 melanoma, 73 µM; in the assay with HCT-116 colon, 21.9 µM; with HL-60(TB) leukemia it was 94 µM; in the assay with OVCAR-3 ovarian it was 19 µM. The GI50 with SK-MEL-28 melanoma is 71.9 µM; with HCC-2998 colon, 18.1 µM; in the assay on NCI-H522 lung it was 22.7 µM. The TGI in the assay on CCRF-CEM leukemia is greater than 100 µM; in the assay with SNB-19 CNS, greater than 59.7 µM; with M14 melanoma it was greater than 100 µM; in the assay with HCT-116 colon it was 61.3 µM; with HL-60(TB) leukemia, greater than 100 µM; with OVCAR-3 ovarian, 40.6 µM. Also, the TGI was greater than 100 µM with SK-MEL-28 melanoma, 33.4 µM with HCC-2998 colon and 64.5 µM in the assay on NCI-H522 lung.

Regarding `CC(=O)O[C@H](C[C@H](C(C)C)N(C)C(=O)[C@@H](NC(=O)[C@H]1CCCN1C)C(C)C)c1nc(C(=O)N[C@@H](Cc2ccccc2)C[C@H](C)C(=O)O)c(C)s1`, the GI50 was less than 0.00167 µM in the assay with CCRF-CEM leukemia; less than 0.00167 µM with SNB-19 CNS; less than 0.00167 µM in the assay on M14 melanoma; less than 0.00167 µM in the assay with HCT-116 colon; less than 0.00167 µM in the assay with HL-60(TB) leukemia; 0.00557 µM in the assay with SK-MEL-28 melanoma. Moreover, the values for the GI50 in the assay with HCC-2998 colon and with NCI-H522 lung were 0.00252 µM and less than 0.00167 µM, respectively. Besides, the TGI in the assay with CCRF-CEM leukemia was greater than 16.7 µM; in the assay with SNB-19 CNS, greater than 16.7 µM; with M14 melanoma, greater than 16.7 µM; with HCT-116 colon, greater than 16.7 µM; in the assay with HL-60(TB) leukemia, less than 0.00167 µM; in the assay on SK-MEL-28 melanoma it was greater than 16.7 µM. Also, the TGI was greater than 16.7 µM in the assay with HCC-2998 colon and less than 0.00167 µM in the assay on NCI-H522 lung.

For the molecule `COc1ccc2oc(C(=O)O)c3c2c1CCC3CCC(=O)O` (stereo not given), the TGI in the assay with CCRF-CEM leukemia is greater than 100 µM; in the assay on SNB-19 CNS, greater than 100 µM; in the assay with M14 melanoma it was greater than 1 µM; in the assay with HCT-116 colon, greater than 100 µM; with HL-60(TB) leukemia it was greater than 100 µM; in the assay on OVCAR-3 ovarian it was greater than 1 µM. Further, the TGI in the assay with SK-MEL-28 melanoma, with HCC-2998 colon and in the assay on NCI-H522 lung was greater than 100 µM in each case.

As to `O=C1C=CC(=O)N1c1cccc(N2C(=O)C=CC2=O)c1`, the GI50 was 2.27 µM in the assay on CCRF-CEM leukemia; 18.6 µM in the assay on SNB-19 CNS; 1.85 µM in the assay on M14 melanoma; 1.7 µM in the assay on HCT-116 colon; 1.79 µM with HL-60(TB) leukemia; 2.04 µM in the assay on OVCAR-3 ovarian. For the same molecule, the figures for the GI50 with SK-MEL-28 melanoma, in the assay with HCC-2998 colon and in the assay with NCI-H522 lung were 1.95 µM, 12.9 µM and 1.62 µM, respectively. In addition, the TGI in the assay on CCRF-CEM leukemia turned out to be 7.65 µM; in the assay on SNB-19 CNS, 35.8 µM; with M14 melanoma it was 3.71 µM; in the assay on HCT-116 colon, 3.22 µM; in the assay with HL-60(TB) leukemia, 5.12 µM; in the assay with OVCAR-3 ovarian, 3.54 µM. Besides, the TGI stood at 3.78 µM in the assay with SK-MEL-28 melanoma, 26.4 µM in the assay on HCC-2998 colon and 3.04 µM with NCI-H522 lung.

As for `CCCCCCCCCC(=O)OCC1OC(n2cc(F)c(=O)[nH]c2=O)C(NC(=O)OCc2ccccc2)C(OC(=O)CCCCCCCCC)C1O` (stereo not given), the TGI was greater than 100 µM with CCRF-CEM leukemia; greater than 100 µM with SNB-19 CNS; greater than 100 µM in the assay on M14 melanoma; 28.1 µM in the assay with HCT-116 colon; 55.8 µM in the assay on HL-60(TB) leukemia; 48.5 µM in the assay on OVCAR-3 ovarian. Further, the TGI is greater than 100 µM in the assay on SK-MEL-28 melanoma, greater than 100 µM with HCC-2998 colon and 72.2 µM in the assay with NCI-H522 lung.

As for `COc1ccc(/C=C2\CCC(CCN(C)C)(C3=CCCC3)C2=O)cc1Br` (stereo not given), the TGI with CCRF-CEM leukemia was 5.74 µM; in the assay on SNB-19 CNS it was 22.1 µM; with M14 melanoma, 3.34 µM; in the assay on HCT-116 colon, 17.1 µM; in the assay on HL-60(TB) leukemia, 4.63 µM; in the assay with OVCAR-3 ovarian it was 19.3 µM. For the same molecule, the TGI is 7.7 µM with SK-MEL-28 melanoma, 4.71 µM in the assay on HCC-2998 colon and 3.98 µM in the assay with NCI-H522 lung.

`C=C1CC2CC(O)CC(C1)C2` (stereo not given): the TGI with SNB-19 CNS, with M14 melanoma, in the assay on HCT-116 colon, in the assay on OVCAR-3 ovarian, with SK-MEL-28 melanoma and with NCI-H522 lung was greater than 100 µM throughout.

Take `Cc1ccc(C(=O)/C=C/c2cccc([N+](=O)[O-])c2)cc1`: the TGI in the assay on CCRF-CEM leukemia is greater than 89.9 µM; in the assay on SNB-19 CNS, greater than 100 µM; with M14 melanoma, greater than 100 µM; with HCT-116 colon, 31.8 µM; in the assay on HL-60(TB) leukemia, greater than 85.8 µM; in the assay on OVCAR-3 ovarian, greater than 100 µM. Moreover, the TGI was greater than 100 µM in the assay on SK-MEL-28 melanoma, greater than 92 µM with HCC-2998 colon and greater than 100 µM with NCI-H522 lung.

Take `CCn1c(-c2nonc2N)nc2c(C#CC(C)(C)O)ncc(OC[C@H]3CCCNC3)c21`: the GI50 in the assay with CCRF-CEM leukemia was 0.335 µM; in the assay on SNB-19 CNS, 15.1 µM; in the assay on M14 melanoma, 14.8 µM; in the assay on HCT-116 colon, 12.9 µM; in the assay with HL-60(TB) leukemia, 10.6 µM; with OVCAR-3 ovarian, 6.92 µM. Moreover, the GI50 with SK-MEL-28 melanoma was 11.7 µM; in the assay with HCC-2998 colon, 21.2 µM; in the assay with NCI-H522 lung, 12.2 µM. In addition, the TGI is 47.2 µM in the assay on CCRF-CEM leukemia; 42.8 µM with SNB-19 CNS; 37.7 µM in the assay on M14 melanoma; greater than 95.9 µM in the assay with HCT-116 colon; 32 µM in the assay on HL-60(TB) leukemia; 25.9 µM in the assay on OVCAR-3 ovarian. Also, the TGI is 27.1 µM in the assay with SK-MEL-28 melanoma, greater than 100 µM in the assay with HCC-2998 colon and 33.2 µM in the assay on NCI-H522 lung.

On to `CCCCNC(=O)C1C2CCC(O2)C1C(=O)O` (stereo not given), for which the TGI in the assay on SNB-19 CNS was 58.7 µM; in the assay on M14 melanoma, 29.5 µM; in the assay with HCT-116 colon, 25.2 µM; in the assay with OVCAR-3 ovarian, 31.5 µM; in the assay on SK-MEL-28 melanoma it was 76.1 µM; in the assay on HCC-2998 colon, 46.6 µM. The molecule also displayed a TGI in the assay with NCI-H522 lung of 41.8 µM.

In the case of `CCc1cc(CCC(=O)Nc2ccccc2[N+](=O)[O-])[nH]c(=S)n1`, the TGI with CCRF-CEM leukemia, in the assay with SNB-19 CNS, in the assay on M14 melanoma, in the assay with HCT-116 colon, in the assay with HL-60(TB) leukemia and with OVCAR-3 ovarian was greater than 100 µM each time. The TGI in the assay with SK-MEL-28 melanoma was greater than 100 µM.

Consider `Nc1n[n+](-c2ccccc2)no1`, for which the TGI in the assay on CCRF-CEM leukemia, with SNB-19 CNS, in the assay with M14 melanoma, in the assay on HCT-116 colon, with HL-60(TB) leukemia and in the assay with OVCAR-3 ovarian was greater than 100 µM each time. For the same molecule, the TGI with HCC-2998 colon and in the assay on NCI-H522 lung was greater than 100 µM each time.

Consider `O=C(CC(=O)c1cccc2ccccc12)C(=O)NC1C2CC3CC(C2)CC1C3` (stereo not given), for which the TGI in the assay on CCRF-CEM leukemia, with SNB-19 CNS, in the assay with M14 melanoma, with HCT-116 colon, with HL-60(TB) leukemia and with OVCAR-3 ovarian was greater than 100 µM throughout. Further, the TGI in the assay on HCC-2998 colon and in the assay with NCI-H522 lung was greater than 100 µM each time.

Turning to `C=C1C(OC(=O)/C=C/c2ccccc2)CC(OC(C)=O)C2(C)C1CC1CC(OC(C)=O)C(C)=C(C(OC(C)=O)C2OC(C)=O)C1(C)C` (stereo not given), the TGI in the assay on CCRF-CEM leukemia, in the assay on SNB-19 CNS, with M14 melanoma, in the assay on HCT-116 colon, in the assay with HCC-2998 colon and with NCI-H522 lung was greater than 100 µM each time.

Take `O=C(O/N=C1/CCC/C1=C\c1ccccc1)c1ccc(Cl)c(Cl)c1`: the TGI with CCRF-CEM leukemia, in the assay on M14 melanoma, with HCT-116 colon, in the assay on HL-60(TB) leukemia, with OVCAR-3 ovarian and in the assay with SK-MEL-28 melanoma was greater than 100 µM each time. Further, the TGI in the assay with HCC-2998 colon and in the assay with NCI-H522 lung was greater than 100 µM each time.

For the molecule `CC(C)(C)c1ccc(OCCOCCOc2ccc(C(C)(C)C)cc2S(=O)(=O)Nc2ccc([N+](=O)[O-])cc2)c(S(=O)(=O)Nc2ccc([N+](=O)[O-])cc2)c1`, the TGI in the assay on CCRF-CEM leukemia, in the assay with SNB-19 CNS, with M14 melanoma, in the assay on HCT-116 colon, in the assay with HL-60(TB) leukemia and with OVCAR-3 ovarian was greater than 100 µM each time. Also, the TGI in the assay on SK-MEL-28 melanoma and with HCC-2998 colon was greater than 100 µM each time.

On to `COc1ccc2c3c(c(C(=O)c4ccccc4)oc13)CCC2`, for which the TGI in the assay with CCRF-CEM leukemia, in the assay with SNB-19 CNS, in the assay on M14 melanoma, with HCT-116 colon, in the assay with HL-60(TB) leukemia and in the assay on OVCAR-3 ovarian was greater than 100 µM throughout. Further, the TGI in the assay with SK-MEL-28 melanoma and in the assay with HCC-2998 colon was greater than 100 µM in each case.

For `O=C(CCn1[nH]c(=O)c(Cl)c(Cl)c1=O)NNC(=O)C[n+]1ccccc1`, the TGI with CCRF-CEM leukemia, in the assay on SNB-19 CNS, in the assay on M14 melanoma, in the assay with HL-60(TB) leukemia, in the assay with OVCAR-3 ovarian and in the assay on SK-MEL-28 melanoma was greater than 100 µM in each case. The TGI in the assay on HCC-2998 colon and with NCI-H522 lung was greater than 100 µM each time.

Turning to `CCOC(=O)c1cnc2c(ccc3ncccc32)c1NCCCN(CC)CC`, the TGI is greater than 100 µM with CCRF-CEM leukemia; greater than 100 µM with SNB-19 CNS; 35.1 µM in the assay with M14 melanoma; 38.4 µM with HL-60(TB) leukemia; greater than 100 µM with OVCAR-3 ovarian; greater than 100 µM in the assay with SK-MEL-28 melanoma. The TGI in the assay with HCC-2998 colon and in the assay with NCI-H522 lung was greater than 100 µM throughout.
